As a reminder, the IC50 is the point on the concentration scale where inhibition reaches its midpoint.

Consider 3 compounds from patent US7868204B2, “Inhibitors of histone deacetylase” (MethylGene Inc., priority 2001, dated 2011).

One test deals with HDAC-1 (Homo sapiens, UniProt Q13547). The test can be described thus: Human HDAC-1 enzyme inhibition, Assay 2 (Boc-Lys(Ac)-AMC, Fluor-de-Lys fluorescence; compounds 604-617). The conditions noted are these: read-out: HDAC1 IC50. Format: biochemical. How it is done:
Assay 2. The following protocol was also used to assay the compounds of the invention. In the assay, the buffer used was 25 mM HEPES, pH 8.0, 137 mM NaCl, 2.7 mM […], 1 mM MgCl2 and the substrate was Boc-Lys(Ac)-AMC in a 50 mM stock solution in DMSO. The enzyme stock solution was 4.08 μg/mL in buffer. The compounds were pre-incubated (2 μl in DMSO diluted to 13 μl in buffer for transfer to assay plate) with enzyme (20 μl of 4.08 μg/ml) for 10 minutes at room temperature (35 μl pre-incubation volume). The mixture was pre-incubated for 5 minutes at room temperature. The reaction was started by bringing the temperature to 37° C. and adding […] substrate. Total reaction volume was 50 μl. […] A plate was incubated in the dark for 10 minutes at room temperature before reading (λEx=360 nm, λEm=470 nm, Cutoff filter at 435 nm). Assay 2 was used to measure HDAC activity of compounds 604-617 (Table 5). HDAC activity of the remaining compounds was measured by assay 1.

A further test deals with HCT116 cells. Kind of test: MTT assay. Type of test: cell-based. The conditions noted are these: Homo sapiens, HCT-116, HCT116 cells. Summed up:
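Read-out: MTT (0.5 mg/ml final, 4 h) after solubilization in 50% DMF/20% SDS, pH 4.7, with OD translated into cell number via the line's growth curve. Compound treatment lasted 72 h at 37 °C in 5% CO2, starting a day after plating.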
For orientation: Formazan colour is commonly taken as a measure of viable cells.

Test [1] deals with acetyl-H3 in T24 human bladder cancer cells. Kind of test: Histone H3 acetylation assay (anti-acetyl-H3, Amplex-Red fluorescence, normalized to Alamar Blue). Format: cell-based. The conditions noted are these: T-24, 16 h incubation, read-out: H3 Ac t24. Here is the method: T24 human bladder cancer cells growing in culture are incubated with HDAC inhibitors for 16 h. Cell viability is determined by adding 10 μl Alamar Blue (BioSource, DAL1100). Cells are washed once with PBS and fixed with methanol precooled to −20° C. for 10 min. The cells are then washed twice in PBS. The fixed cells are blocked with 50 μl of PBS+0.1% Triton X-100. Cells are probed with rabbit-anti-acetyl-H3 (Upstate #06-599) as the primary antibody and then with goat-anti-rabbit-HRP (Sigma #A-0545) as the secondary antibody. Fluorescence is read by fluorometer at Ex: 550, Em: 610, Cutoff: 590 (Auto PMT, 15 reads/well) after addition of Amplex-Red. Fluorescence signal is normalized against cell viability derived from Alamar Blue. Maximum acetylation signal of MS-275 (fluorescence unit) is measured as Emax.
Background: Alamar Blue is a resazurin reagent that responds to reducing activity.

HDAC-1, sequence (Q13547 whole entry): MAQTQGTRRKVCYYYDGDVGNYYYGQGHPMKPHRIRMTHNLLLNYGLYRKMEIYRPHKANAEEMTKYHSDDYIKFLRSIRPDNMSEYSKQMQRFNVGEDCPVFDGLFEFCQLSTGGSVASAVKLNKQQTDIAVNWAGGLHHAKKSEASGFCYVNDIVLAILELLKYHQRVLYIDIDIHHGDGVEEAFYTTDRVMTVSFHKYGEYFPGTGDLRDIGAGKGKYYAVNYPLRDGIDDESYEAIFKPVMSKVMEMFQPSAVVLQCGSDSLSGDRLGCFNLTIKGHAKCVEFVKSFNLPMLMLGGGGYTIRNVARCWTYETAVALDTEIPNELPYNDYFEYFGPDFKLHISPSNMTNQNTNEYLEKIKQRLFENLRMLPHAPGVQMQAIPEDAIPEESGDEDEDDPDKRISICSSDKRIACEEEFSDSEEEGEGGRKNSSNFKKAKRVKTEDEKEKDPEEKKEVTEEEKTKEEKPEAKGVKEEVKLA

As to `COc1cc(O[C@H]2CCN(c3ccc(C(=O)Nc4ccccc4N)cc3)C2)cc(OC)c1OC` [compound 613, (S)-N-(2-aminophenyl)-4-(3-(3,4,5-trimethoxyphenoxy)pyrrolidin-1-yl)benzamide], the IC50 worked out at 90 nM at HDAC-1 and 300 nM in the test with HCT116 cells. Further, the EC50 in test [1] was determined as 1000 nM.
In the same order, the values of `Nc1ccccc1NC(=O)c1ccc(N2CC[C@H](Oc3ccc4c(c3)OCO4)C2)cc1` [compound 614, (S)-N-(2-aminophenyl)-4-(3-(benzo[d][1,3]dioxol-5-yloxy)pyrrolidin-1-yl)benzamide] are 100 nM, 8000 nM and 1000 nM.
In the same order, the values of `Nc1ccccc1NC(=O)c1ccc(N2CC[C@H](Sc3ccccn3)C2)cc1` [compound 617, (S)-N-(2-aminophenyl)-4-(3-(pyridin-2-ylthio)pyrrolidin-1-yl)benzamide] are 230 nM, 700 nM and 2000 nM.
